Test results published in article PMC5003785, “An unusual UMP C-5 methylase in nucleoside antibiotic polyoxin biosynthesis” (Protein & Cell, 2016).

Tests used:
PolB = biological target: T1, PolB (Streptomyces asoensis, UniProt C1IC19); assay: crystal structure; type: binding
T1 construct: N-terminal His6-tagged, expressed in E. coli BL21(DE3); FAD-containing; homotetramer

SVIThyX2 = biological target: T2, SVIThyX2 (Streptomyces viridochromogenes, UniProt D9X6S9); assay: LC-MS methylation assay; type: biochemical; details: NADPH, CH2H4folate; 50 mmol/L Tris-HCl pH 8.0
T2 construct: gene thyX

ThyX = biological target: T3, ThyX (Streptomyces asoensis, UniProt M1ETU3); assay: LC-MS methylation assay; type: biochemical; details: NADPH, CH2H4folate; 50 mmol/L Tris-HCl pH 8.0
T3 construct: gene thyX_2; recombinant
T3 sequence (M1ETU3 1-246): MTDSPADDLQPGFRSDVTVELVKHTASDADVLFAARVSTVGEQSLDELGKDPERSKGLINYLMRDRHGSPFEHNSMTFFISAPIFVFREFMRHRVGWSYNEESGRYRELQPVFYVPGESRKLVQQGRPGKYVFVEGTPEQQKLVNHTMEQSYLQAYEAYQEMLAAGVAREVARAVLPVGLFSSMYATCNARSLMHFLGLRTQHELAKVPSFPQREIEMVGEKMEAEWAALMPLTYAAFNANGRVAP

[1] = biological target: PolB from S. cacaoi (UMP C-5 methylase with thymidylate synthase activity) (S. cacaoi); assay: crystal structure; apo-PolB, space group P2(1), two tetramers in the asymmetric unit; 17% PEG4000, 0.2 mol/L Li2SO4, 0.1 mol/L Tris-HCl pH 8.5, 20°C
[2] = biological target: PolB from S. cacaoi (UMP C-5 methylase with thymidylate synthase activity) (S. cacaoi); assay: crystal structure; PolB with 4 mmol/L 5-Br dUMP; 1.4 mol/L sodium acetate, 0.1 mol/L sodium cacodylate pH 6.5, 20°C
methylation kinetics [3] = substrate: O=c1ccn([C@H]2C[C@H](O)[C@@H](COP(=O)(O)O)O2)c(=O)[nH]1; assay: methylation kinetics; type: biochemical, Streptomyces asoensis; details: NADPH and CH2H4folate co-substrates, assay buffer 50 mmol/L Tris-HCl pH 8.0
methylation kinetics [4] = substrate: O=c1ccn([C@@H]2O[C@H](COP(=O)(O)O)[C@@H](O)[C@H]2O)c(=O)[nH]1; assay: methylation kinetics; type: biochemical, Streptomyces asoensis; details: NADPH and CH2H4folate co-substrates, assay buffer 50 mmol/L Tris-HCl pH 8.0

T2 sequence (D9X6S9 entry or part of it): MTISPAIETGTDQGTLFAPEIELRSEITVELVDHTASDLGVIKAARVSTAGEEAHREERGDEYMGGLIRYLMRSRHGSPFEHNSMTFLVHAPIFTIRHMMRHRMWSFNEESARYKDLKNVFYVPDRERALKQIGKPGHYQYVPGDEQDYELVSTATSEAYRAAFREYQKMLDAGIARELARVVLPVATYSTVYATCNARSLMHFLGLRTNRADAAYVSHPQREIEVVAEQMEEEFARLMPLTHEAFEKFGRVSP

With `O=c1[nH]c(=O)n([C@@H]2O[C@H](COP(=O)(O)O)[C@@H](O)[C@H]2O)cc1Br` [5-Br UMP] the crystal structure (PolB; 1.76 Å, substrate analog in active site) was “structures in complex with substrate analogs 5-Br dUMP and 5-Br UMP”.

In the case of `O=c1[nH]c(=O)n([C@H]2C[C@H](O)[C@@H](COP(=O)(O)O)O2)cc1Br` [5-Br dUMP], the crystal structure (PolB; 2.28 Å, substrate analog in active site, stacked on FAD isoalloxazine) is reported as “structures in complex with substrate analogs 5-Br dUMP and 5-Br UMP”.

For `Cc1cc2nc3c(=O)[nH]c(=O)nc-3n(C[C@H](O)[C@H](O)[C@H](O)COP(=O)(O)OP(=O)(O)OC[C@H]3O[C@@H](n4cnc5c(N)ncnc54)[C@H](O)[C@@H]3O)c2cc1C` [FAD], the crystal structure (PolB; bound flavin in the 5-Br dUMP complex) was 5-Br dUMP poses strong π-π interaction with the isoalloxazine moiety of FAD.

In the case of `O=c1ccn([C@@H]2O[C@H](COP(=O)(O)O)[C@@H](O)[C@H]2O)c(=O)[nH]1` [UMP], the LC-MS methylation assay (SVIThyX2) is reported as “SVIThyX2 was able to catalyze the methylation for both UMP and dUMP”.

For `O=c1ccn([C@H]2C[C@H](O)[C@@H](COP(=O)(O)O)O2)c(=O)[nH]1` [dUMP], the LC-MS methylation assay (SVIThyX2) was “SVIThyX2 was able to catalyze the methylation for both UMP and dUMP” and the LC-MS methylation assay (ThyX) was “recombinant S. cacaoi ThyX could catalyze the methylation of dUMP but not UMP”.

In the case of “PolB from S. cacaoi (UMP C-5 methylase with thymidylate synthase activity) (enzyme)”, the stoichiometry N [1] is reported as 4 and the stoichiometry N [2] is reported as 4.

B1: PolB (Streptomyces asoensis) (protein)
chain: MESPRIELRSDITVELVDSSASDLAVVKAARVSTAGEDANDELYDGGSTRGLIRYLMRSRHGSPFEHNSMTFLVRAPIFTVRHLMRHRTWSFNEESARYREVGAAFYVPDATRLLRQEGKPGDYRYVGGSTDDHQQVVRSATRAYEVAFEEYQRLLDSGIAREIARLVLPVSTYSVLYATCNARALMHFLSLRTHRPDAAYVSHPQREIEMVAEQMETAWAKLMPVTHEAFTAFGRVSP
notes: N-terminal His6-tagged, expressed in E. coli BL21(DE3); FAD-containing; homotetramer
B1 showed a Km (methylation kinetics [3]) of 12.96 ± 0.89 µM, a kcat (methylation kinetics [3]) of 0.029 ± 0.00083 s⁻¹ and a Km (methylation kinetics [4]) of 19.48 ± 4.15 µM. For the same molecule, the kcat (methylation kinetics [4]) was 0.0515 ± 0.00283 s⁻¹.
